Assays:
HepG2 [1] = test: Cytotoxicity against human HepG2 cells assessed as growth inhibition at 100 uM after 24 to 48 hrs by MTT assay relative to control; format: functional; details: read-out: GI
cells = details: Homo sapiens, MIA PaCa-2, 48 h
Description: Cytotoxicity against human MIAPaCa2 cells assessed as inhibition of cell proliferation after 48 hrs by MTT assay

HepG2 [2] = test: cells; details: Homo sapiens, HepG2, 48 h
Description: Cytotoxicity against human HepG2 cells assessed as inhibition of cell proliferation after 48 hrs by MTT assay

HL-60 [3] = test: Cytotoxicity against human HL60 cells assessed as growth inhibition at 30 uM after 24 to 48 hrs by MTT assay relative to control; format: functional; details: read-out: GI
[4] = Cytotoxicity against human MIAPaCa2 cells assessed as growth inhibition at 30 uM after 24 to 48 hrs by MTT assay relative to control; format: functional; details: MIA PaCa-2, read-out: GI
HCT-116 [5] = test: Cytotoxicity against human HCT116 cells assessed as growth inhibition at 30 uM after 24 to 48 hrs by MTT assay relative to control; format: functional; details: read-out: GI
PC-3 [6] = test: Cytotoxicity against human PC3 cells assessed as growth inhibition at 100 uM after 24 to 48 hrs by MTT assay relative to control; format: functional; details: read-out: GI
HCT-116 [7] = test: Cytotoxicity against human HCT116 cells assessed as growth inhibition at 100 uM after 24 to 48 hrs by MTT assay relative to control; format: functional; details: read-out: GI
PC-3 [8] = test: Cytotoxicity against human PC3 cells assessed as growth inhibition at 10 uM after 24 to 48 hrs by MTT assay relative to control; format: functional; details: read-out: GI
HL-60 [9] = test: Cytotoxicity against human HL60 cells assessed as growth inhibition at 100 uM after 24 to 48 hrs by MTT assay relative to control; format: functional; details: read-out: GI
HepG2 [10] = test: Cytotoxicity against human HepG2 cells assessed as growth inhibition at 30 uM after 24 to 48 hrs by MTT assay relative to control; format: functional; details: read-out: GI
HepG2 [11] = test: Cytotoxicity against human HepG2 cells assessed as growth inhibition at 10 uM after 24 to 48 hrs by MTT assay relative to control; format: functional; details: read-out: GI
[12] = Cytotoxicity against human MIAPaCa2 cells assessed as growth inhibition at 100 uM after 24 to 48 hrs by MTT assay relative to control; format: functional; details: MIA PaCa-2, read-out: GI
[13] = Cytotoxicity against human MIAPaCa2 cells assessed as growth inhibition at 10 uM after 24 to 48 hrs by MTT assay relative to control; format: functional; details: MIA PaCa-2, read-out: GI
PC-3 [14] = test: Cytotoxicity against human PC3 cells assessed as growth inhibition at 30 uM after 24 to 48 hrs by MTT assay relative to control; format: functional; details: read-out: GI
PC-3 [15] = test: cells; details: Homo sapiens, PC-3, 48 h
Description: Cytotoxicity against human PC3 cells assessed as inhibition of cell proliferation after 48 hrs by MTT assay

HL-60 [16] = test: cells; details: Homo sapiens, HL-60, 48 h
Description: Cytotoxicity against human HL60 cells assessed as inhibition of cell proliferation after 48 hrs by MTT assay

HL-60 [17] = test: Cytotoxicity against human HL60 cells assessed as growth inhibition at 10 uM after 24 to 48 hrs by MTT assay relative to control; format: functional; details: read-out: GI
HCT-116 [18] = test: cells; details: Homo sapiens, HCT-116, 48 h
Description: Cytotoxicity against human HCT116 cells assessed as inhibition of cell proliferation after 48 hrs by MTT assay

HCT-116 [19] = test: Cytotoxicity against human HCT116 cells assessed as growth inhibition at 10 uM after 24 to 48 hrs by MTT assay relative to control; format: functional; details: read-out: GI

| IC50 (cells) [µM] | IC50 (HepG2 [2]) [µM] | IC50 (PC-3 [15]) [µM] | IC50 (HL-60 [16]) [µM] | IC50 (HCT-116 [18]) [µM] | SMILES | inhibition of growth at 100 µM (HepG2 [1]) [%] | inhibition of growth at 30 µM (HL-60 [3]) [%] | inhibition of growth at 30 µM [4] [%] | inhibition of growth at 30 µM (HCT-116 [5]) [%] | inhibition of growth at 100 µM (PC-3 [6]) [%] | inhibition of growth at 100 µM (HCT-116 [7]) [%] | inhibition of growth at 10 µM (PC-3 [8]) [%] | inhibition of growth at 100 µM (HL-60 [9]) [%] | inhibition of growth at 30 µM (HepG2 [10]) [%] | inhibition of growth at 10 µM (HepG2 [11]) [%] | inhibition of growth at 100 µM [12] [%] | inhibition of growth at 10 µM [13] [%] | inhibition of growth at 30 µM (PC-3 [14]) [%] | inhibition of growth at 10 µM (HL-60 [17]) [%] | inhibition of growth at 10 µM (HCT-116 [19]) [%] |
| --- | --- | --- | --- | --- | --- | --- | --- | --- | --- | --- | --- | --- | --- | --- | --- | --- | --- | --- | --- | --- |
| < 10 | 19 | 11 | < 10 | 16 | O=C(c1cccnc1Cl)N(c1ccccc1)c1ccnc2ccc(-c3ccc(O)cc3)cc12 | 88 | 94 | 89 | 88 | 90 | 89 | 47 | 95 | 87 | 19 | 89 | 69 | 90 | 92 | 29 |
| < 10 | 18 | 44 | < 10 | 31 | CC(C)(C)c1ccc(S(=O)(=O)N(c2ccccc2)c2ccnc3ccc(-c4ccc(O)cc4)cc23)cc1 | 98 | 89 | 85 | 35 | 70 | 83 | 21 | 93 | 89 | 14 | 90 | 79 | 45 | 76 | 20 |
| 26 | > 100 | 39 | 18 | 40 | COc1ccc(-c2ccc3nccc(Nc4ccccc4)c3c2)cc1 | 36 | 69 | 53 | 45 | 71 | 77 | 40 | 91 | 30 | 19 | 55 | 42 | 46 | 32 | 16 |
| < 10 | 12 | 65 | < 10 | 70 | O=S(=O)(c1ccc2c(c1)OCCO2)N(c1ccccc1)c1ccnc2ccc(-c3ccc(O)cc3)cc12 | 88 | 90 | 84 | 26 | 62 | 68 | 27 | 90 | 87 | 46 | 86 | 79 | 38 | 87 | 17 |
| 20 | 22 | > 100 | < 10 | 68 | O=S(=O)(c1ccc(Br)cc1)N(c1ccccc1)c1ccnc2ccc(-c3ccc(O)cc3)cc12 | 80 | 88 | 76 | 23 | 25 | 73 | 15 | 87 | 73 | 1 | 81 | 27 | 28 | 69 | 9 |
| < 10 | 20 | 65 | < 10 | 50 | COc1ccc(S(=O)(=O)N(c2ccccc2)c2ccnc3ccc(-c4ccc(O)cc4)cc23)cc1 | 86 | 87 | 81 | 39 | 61 | 79 | 15 | 89 | 78 | 20 | 86 | 63 | 39 | 63 | 10 |
| 25 | 22 | > 100 | < 10 | 90 | O=[N+]([O-])c1ccc(S(=O)(=O)N(c2ccccc2)c2ccnc3ccc(-c4ccc(O)cc4)cc23)cc1 | 84 | 87 | 59 | 4 | 47 | 58 | 4 | 89 | 76 | 8 | 81 | 21 | 30 | 86 | 2 |
| 8 | 9 | 45 | 5 | 28 | Nc1ccc(S(=O)(=O)N(c2ccccc2)c2ccnc3ccc(-c4ccc(O)cc4)cc23)cc1 | 71 | 81 | 84 | 54 | 84 | 88 | 30 | 92 | 70 | 59 | 85 | 64 | 40 | 66 | 33 |
| 78 | > 100 | > 100 | 58 | > 100 | N#Cc1ccc(S(=O)(=O)N(c2ccccc2)c2ccnc3ccc(-c4ccc(O)cc4)cc23)cc1 | 34 | 30 | 21 | 21 | 19 | 36 | 9 | 78 | 1 | 1 | 64 | 16 | 10 | 12 | 5 |
| < 10 | 19 | 45 | < 10 | 53 | Cc1ccc(S(=O)(=O)N(c2ccccc2)c2ccnc3ccc(-c4ccc(O)cc4)cc23)cc1 | 97 | 90 | 88 | 34 | 72 | 82 | 20 | 92 | 90 | 13 | 89 | 80 | 43 | 78 | 21 |
| 15 | 18 | 22 | < 10 | 52 | O=C(c1ccccc1F)N(c1ccccc1)c1ccnc2ccc(-c3ccc(O)cc3)cc12 | 87 | 93 | 90 | 32 | 88 | 88 | 27 | 94 | 84 | 22 | 90 | 36 | 65 | 55 | 26 |
